Test results from patent US12599648B2, “Pharmaceutical composition comprising a combination of a guanylate cyclase C (GUCY2C) agonist and a short-chain fatty acid or prodrug thereof” (priority 2020, dated 2026).
Bridge positions count the residues as written; N and C are the ends. Peptide text beside a SMILES is read from it.

Tests used:
[1] = test system: colonic tumors after AOM/DSS treatment; details: diet supplemented with tributyrin; Donohoe et al.; cited from earlier work
[2] = cited from earlier work
[3] = Caecum and colon weight and diarrhea observation in the AOM/DSS mouse trial; format: in vivo, wild type mice (BALB/c)
From the text: Thirty wild type mice (BALB/c) were maintained in individually ventilated cages (specific pathogen-free conditions) and divided in four age- and gender-matching groups at the age of 4 weeks. The schematic study set up of the mouse trial using AOM/DSS-based CRC mouse model is represented in FIG. 1.
Accordingly, group A received a semi-synthetic control diet (Hoevenaars F P M, van Schothorst E M, Horakova O, Voigt A, Rossmeisl M, Pico C, Caimari A, Kopecky J, Klaus S, Keijer J. BIOCLAIMS standard diet (BIOsd): a reference diet for nutritional physiology. Genes Nutr. 2012; 7:399-404), group B received a semi-synthetic diet with fiber-supplementation (containing about 46,2 g resistant starch type 2 per 1 kg diet), group C received a semi-synthetic control diet with linaclotide supplementation in drinking water (0.069 μg/mL; replaced every second day; dosage of linaclotide was calculated based on a previous study that applied 0.207 μg/day/mouse via oral gavage (Sharman S K, Islam B N, Hou Y, Singh N, Berger F G, Sridhar S, Yoo W, Browning D D. Cyclic-GMP-Elevating Agents Suppress Polyposis in ApcMin Mice by Targeting the Preneoplastic Epithelium. Cancer Prev Res (Phila Pa). 2018; 11:81-92.) and an assumed daily intake of 3 mL H2O per mouse; this mimics a daily intake of about 0.6 mg in a 70 kg healthy human, which is close to amounts used in previous clinical studies (Weinberg D S, Lin J E, Foster N R, Della'Zanna G, Umar A, Seisler D, Kraft W K, Kastenberg D M, Katz L C, Limburg P J, et al. Bioactivity of Oral Linaclotide in Human Colorectum for Cancer Chemoprevention. Cancer Prev Res Phila Pa. 2017; 10:345-54.)), group D received a combination of fiber-supplemented diet (containing about 46,2 g resistant starch type 2 per 1 kg diet), and linaclotide (0.069 μg/mL).
FIGS. 4 a) to d) represent graphs on the effect of butyrate acting as osmotic antagonist of linaclotide or GUCY2C signaling limiting the flow of H2O to the gut lumen. […] Single dots represent single mice; statistical analysis using One-way ANOVA with Kruskal-Wallis post-test, *=p<0.05. **=p<0.01.

[4] = in vivo; cited from earlier work

## CCCC(=O)OCC(COC(=O)CCC)OC(=O)CCC [Tributyrin, 1,3-di(butanoyloxy)propan-2-yl butanoate]
[1]
  tumor levels in the colon after AOM/DSS treatment: lowest tumor levels
[2]
  solubility in water: only poorly soluble

## C[C@@H]1NC(=O)[C@@H]2CCCN2C(=O)[C@H](CC(N)=O)NC(=O)[C@@H]2CSSC[C@H](N)C(=O)N[C@H]3CSSC[C@H](NC1=O)C(=O)N[C@@H]([C@@H](C)O)C(=O)NCC(=O)N[C@H](C(=O)N[C@@H](Cc1ccc(O)cc1)C(=O)O)CSSC[C@H](NC(=O)[C@H](Cc1ccc(O)cc1)NC(=O)[C@H](CCC(=O)O)NC3=O)C(=O)N2 [linaclotide, Linaclotide] (H-CCEYCCNPACTGCY-OH; disulfide 1-6, 2-10, 5-13)
[3]; FIG. 4a
  caecum weight (indication of amounts of H2O in the gut lumen): higher
[3]; FIG. 4b
  colon weight (indication of amounts of H2O in the gut lumen): higher
[3]; at the administered linaclotide concentration (0.069 μg/mL drinking water)
  side effect diarrhea: did not observe
[4]
  people taking the drug who have diarrhea: More than 10%
